This is an account of results in ChEMBL document CHEMBL3112509, “Synthesis and antimicrobial activity of (1,4-phenylene)bis(arylsulfonylpyrazoles and isoxazoles)” (2014).

Assay type in all cases: functional
In test [1] the test system is Penicillium chrysogenum. The experiment in a line: Antifungal activity against Penicillium chrysogenum at 50 ug/well after 48 hrs by agar well diffusion method. The conditions noted are these: read-out: DIZ. A general note: In agar diffusion tests the substance spreads into inoculated agar from a disc or well.
The subject of test [2] is Penicillium chrysogenum. The experiment in a line: Antifungal activity against Penicillium chrysogenum at 100 ug/well after 48 hrs by agar well diffusion method. The conditions noted are these: read-out: DIZ.
Test [3] relates to Aspergillus niger. The experiment in a line: Antifungal activity against Aspergillus niger at 50 ug/well after 48 hrs by agar well diffusion method. The conditions noted are these: read-out: DIZ.
The test system of test [4] is Aspergillus niger. The experiment in a line: Antifungal activity against Aspergillus niger at 100 ug/well after 48 hrs by agar well diffusion method. Conditions: read-out: DIZ.
The test system of test [5] is Aspergillus niger. The experiment in a line: Antifungal activity against Aspergillus niger after 48 hrs by broth dilution test. Background: In broth dilution the organism is exposed to a series of concentrations in liquid medium.
The subject of test [6] is Penicillium chrysogenum. The experiment in a line: Antifungal activity against Penicillium chrysogenum after 48 hrs by broth dilution test.
Test [7] deals with Klebsiella pneumoniae. The experiment in a line: Antibacterial activity against Klebsiella pneumoniae at 100 ug/well after 24 hrs by agar well diffusion method. Conditions: for zone of inhibition at 100 µg/disc: read-out: DIZ.
For test [8], the system named is Bacillus subtilis. The experiment in a line: Antibacterial activity against Bacillus subtilis at 100 ug/well after 24 hrs by agar well diffusion method. Conditions: for zone of inhibition at 100 µg/disc: read-out: DIZ.
Test [9] relates to Bacillus subtilis. The experiment in a line: Antibacterial activity against Bacillus subtilis at 50 ug/well after 24 hrs by agar well diffusion method. Conditions: for zone of inhibition at 50 µg/disc: read-out: DIZ.
The subject of test [10] is Pseudomonas aeruginosa. The experiment in a line: Antibacterial activity against Pseudomonas aeruginosa at 50 ug/well after 24 hrs by agar well diffusion method. Conditions: for zone of inhibition at 50 µg/disc: read-out: DIZ.
The test system of test [11] is Klebsiella pneumoniae. The experiment in a line: Antibacterial activity against Klebsiella pneumoniae at 50 ug/well after 24 hrs by agar well diffusion method. Conditions: for zone of inhibition at 50 µg/disc: read-out: DIZ.
Test [12] concerns Staphylococcus aureus. The experiment in a line: Antibacterial activity against Staphylococcus aureus at 50 ug/well after 24 hrs by agar well diffusion method. Conditions: for zone of inhibition at 50 µg/disc: read-out: DIZ.
Test [13] relates to Pseudomonas aeruginosa. The experiment in a line: Antibacterial activity against Pseudomonas aeruginosa at 100 ug/well after 24 hrs by agar well diffusion method. Conditions: for zone of inhibition at 100 µg/disc: read-out: DIZ.
Test [14] relates to Staphylococcus aureus. The experiment in a line: Antibacterial activity against Staphylococcus aureus at 100 ug/well after 24 hrs by agar well diffusion method. Conditions: for zone of inhibition at 100 µg/disc: read-out: DIZ.

Each structure is given as a SMILES string. In brackets after ≈: the same amount, converted by molar mass. Activity calls are given as the source filed them. The rule behind the calls is not given here.

Usually MIC stands for the lowest concentration found to suppress growth. Low readings indicate greater potency, high ones weaker potency.

On to `CC(=O)N1CCN(c2ccc(OCC3COC(Cn4ccnc4)(c4ccc(Cl)cc4Cl)O3)cc2)CC1` (stereo not drawn) [KETOCONAZOLE], for which the zone of inhibition at 50 µg/disc in test [1] was determined as 36 mm; in test [3], 33 mm. Also, the values for the zone of inhibition at 100 µg/disc in test [2] and in test [4] were 38 mm and 36 mm, respectively. Besides, the MIC in test [5] was determined as 6.25 µg/mL (≈ 11.8 µM); in test [6], 12.5 µg/mL (≈ 23.5 µM).
Regarding `O=S(=O)(c1ccccc1)C1C(c2ccc(Cl)cc2)=NN(c2ccccc2)C1c1ccc(C2C(S(=O)(=O)c3ccccc3)C(c3ccc(Cl)cc3)=NN2c2ccccc2)cc1` (stereo not drawn), the zone of inhibition at 100 µg/disc amounted to 12 mm in test [7]; 18 mm in test [2]; 15 mm in [4]; 14 mm in test [8]; 13 mm in test [14]. The zone of inhibition at 50 µg/disc in test [1] was found to be 15 mm; in test [3], 13 mm; in test [9], 12 mm; in test [11] it was 10 mm; in test [12], 11 mm. In addition, the “diameter of the inhibition zone (DIZ)” value in test [10] and in [13] was “inactive” throughout.
Take `COc1ccc(C2=NOC(c3ccc(C4ON=C(c5ccc(OC)cc5)C4S(=O)(=O)c4ccccc4)cc3)C2S(=O)(=O)c2ccccc2)cc1` (stereo not drawn): the “diameter of the inhibition zone (DIZ)” value in [7], in test [8], in test [9], in [10], in test [11] and in test [12] was “inactive” each time. The “diameter of the inhibition zone (DIZ)” value in test [13] and in [14] was “inactive” in each case. In addition, the zone of inhibition at 50 µg/disc was found to be 14 mm in test [1] and 18 mm in test [3]. The zone of inhibition at 100 µg/disc in test [2] was 17 mm; in [4], 20 mm.
For the compound `COc1ccc(C2=NN(c3ccccc3)C(c3ccc(C4C(S(=O)(=O)c5ccccc5)C(c5ccc(OC)cc5)=NN4c4ccccc4)cc3)C2S(=O)(=O)c2ccccc2)cc1` (stereo not drawn), the “diameter of the inhibition zone (DIZ)” value in test [7], in [8], in [9], in test [10], in test [11] and in test [12] was “inactive” in each case. Also, the “diameter of the inhibition zone (DIZ)” value in test [13] and in test [14] was “inactive” throughout. Moreover, the zone of inhibition at 50 µg/disc worked out at 12 mm in [1] and 8 mm in test [3]. The zone of inhibition at 100 µg/disc in test [2] was determined as 16 mm; in [4], 10 mm.
Turning to `COc1ccc(-c2noc(-c3ccc(-c4onc(-c5ccc(OC)cc5)c4S(=O)(=O)c4ccc(C)cc4)cc3)c2S(=O)(=O)c2ccc(C)cc2)cc1`, the zone of inhibition at 100 µg/disc stood at 18 mm in test [7]; 27 mm in [2]; 24 mm in [4]; 27 mm in test [8]; 17 mm in test [13]; 22 mm in test [14]. Moreover, the zone of inhibition at 50 µg/disc in [1] was found to be 25 mm; in test [3], 22 mm; in test [9] it was 25 mm; in test [10], 15 mm; in [11] it was 16 mm; in test [12], 20 mm.
Take `Cc1ccc(S(=O)(=O)C2C(c3ccc(Cl)cc3)=NN(c3ccccc3)C2c2ccc(C3C(S(=O)(=O)c4ccc(C)cc4)C(c4ccc(Cl)cc4)=NN3c3ccccc3)cc2)cc1` (stereo not drawn): the zone of inhibition at 100 µg/disc is 10 mm in test [7]; 16 mm in test [2]; 14 mm in [4]; 13 mm in test [8]; 11 mm in test [14]. The zone of inhibition at 50 µg/disc was 14 mm in [1]; 12 mm in test [3]; 11 mm in [9]; 8 mm in test [11]; 9 mm in test [12]. For the same compound, the “diameter of the inhibition zone (DIZ)” value in [10] and in [13] was “inactive” each time.
`COc1ccc(-c2noc(-c3ccc(-c4onc(-c5ccc(OC)cc5)c4S(=O)(=O)c4ccc(Cl)cc4)cc3)c2S(=O)(=O)c2ccc(Cl)cc2)cc1`: the zone of inhibition at 100 µg/disc in test [7] was found to be 24 mm; in test [2], 30 mm; in test [4], 26 mm; in [8] it was 32 mm; in test [13], 20 mm; in test [14], 26 mm. In addition, the zone of inhibition at 50 µg/disc was determined as 27 mm in test [1]; 23 mm in test [3]; 30 mm in [9]; 17 mm in test [10]; 22 mm in [11]; 23 mm in test [12].
For `Cc1ccc(S(=O)(=O)c2c(-c3ccc(Cl)cc3)nn(-c3ccccc3)c2-c2ccc(-c3c(S(=O)(=O)c4ccc(C)cc4)c(-c4ccc(Cl)cc4)nn3-c3ccccc3)cc2)cc1`, the zone of inhibition at 100 µg/disc in test [7] was 23 mm; in [2], 29 mm; in test [4], 26 mm; in test [8] it was 30 mm; in [13], 18 mm; in test [14], 26 mm. Also, the zone of inhibition at 50 µg/disc stood at 26 mm in test [1]; 22 mm in test [3]; 28 mm in test [9]; 15 mm in test [10]; 21 mm in test [11]; 24 mm in test [12].
With `O=S(=O)(c1ccccc1)c1c(-c2ccc(Cl)cc2)nn(-c2ccccc2)c1-c1ccc(-c2c(S(=O)(=O)c3ccccc3)c(-c3ccc(Cl)cc3)nn2-c2ccccc2)cc1`, the zone of inhibition at 100 µg/disc amounted to 23 mm in test [7]; 30 mm in [2]; 27 mm in [4]; 31 mm in test [8]; 19 mm in test [13]; 25 mm in test [14]. Also, the zone of inhibition at 50 µg/disc worked out at 27 mm in test [1]; 24 mm in test [3]; 28 mm in [9]; 17 mm in test [10]; 21 mm in test [11]; 23 mm in test [12].
Regarding `O=S(=O)(c1ccc(Cl)cc1)C1C(c2ccc(Cl)cc2)=NOC1c1ccc(C2ON=C(c3ccc(Cl)cc3)C2S(=O)(=O)c2ccc(Cl)cc2)cc1` (stereo not drawn), the zone of inhibition at 100 µg/disc stood at 14 mm in [7]; 23 mm in [2]; 20 mm in [4]; 21 mm in [8]; 13 mm in test [13]; 16 mm in test [14]. Besides, the zone of inhibition at 50 µg/disc in test [1] amounted to 21 mm; in test [3], 18 mm; in test [9], 19 mm; in [10], 11 mm; in test [11], 12 mm; in test [12], 14 mm.
Turning to `O=S(=O)(c1ccc(Cl)cc1)C1C(c2ccc(Cl)cc2)=NN(c2ccccc2)C1c1ccc(C2C(S(=O)(=O)c3ccc(Cl)cc3)C(c3ccc(Cl)cc3)=NN2c2ccccc2)cc1` (stereo not drawn), the zone of inhibition at 100 µg/disc in [7] came out at 13 mm; in [2], 20 mm; in [4] it was 15 mm; in test [8], 16 mm; in test [14], 14 mm. The zone of inhibition at 50 µg/disc in test [1] stood at 18 mm; in [3], 13 mm; in [9], 13 mm; in test [11], 10 mm; in test [12] it was 11 mm. For the same compound, the “diameter of the inhibition zone (DIZ)” value in test [10] and in test [13] was “inactive” in each case.
On to `COc1ccc(-c2nn(-c3ccccc3)c(-c3ccc(-c4c(S(=O)(=O)c5ccc(C)cc5)c(-c5ccc(OC)cc5)nn4-c4ccccc4)cc3)c2S(=O)(=O)c2ccc(C)cc2)cc1`, for which the zone of inhibition at 100 µg/disc in [7] is 15 mm; in test [2] it was 24 mm; in test [4] it was 21 mm; in test [8], 22 mm; in test [13], 13 mm; in test [14], 18 mm. In addition, the zone of inhibition at 50 µg/disc was 22 mm in test [1]; 19 mm in [3]; 20 mm in test [9]; 11 mm in test [10]; 13 mm in test [11]; 15 mm in [12].
